Measurements as given in patent US9410158B2, “Genetically modified yeast species, and fermentation processes using genetically modified yeast” (Cargill Incorporated, priority 2003, dated 2016).

System: xylose isomerase enzyme (PXYLA)
Assay: Inhibition of PXYLA activity in strain CD861 using xylitol (Ex. 8E)
Type: biochemical, Piromyces sp. E2
Procedure: Strain CD861 was grown in xylose media containing varying concentrations of xylitol, a known xylose isomerase inhibitor.

In the case of `OC[C@@H](O)[C@H](O)[C@@H](O)CO` [xylitol], the “change of Km for the xylose isomerase enzyme” value (xylitol increased from 0 to 0.25 mM) was “doubled” and the “change of Km for the xylose isomerase enzyme” value (xylitol increased to 0.50 mM) was “doubled again”.
